{"source": "patent US11452731B2", "about": "“Method of treating and preventing loss of cognition” (ENDORECHERCHE, INC., priority 2009, dated 2022)", "key": {"[1]": {"test": "26-week treatment of ovariectomized rats: lumbar spine BMD, total body fat, serum cholesterol, ALP (Example 4, experiment 2)", "format": "in vivo, rat", "details": "OVX rats, 26 weeks", "description": "Ten to twelve week-old female Sprague-Dawley rats (Crl:CD(SD)Br) (Charles River Laboratory, St-Constant, Canada) weighing approximately 220-270 g at start of treatment were used. […] The animals were housed individually and were allowed free access to tap water and a pelleted certified rodent feed (Lab Diet 5002, Ralston Purina, St-Louis, Mo.). Experiments were conducted in an animal facility approved by the Canadian Council on Animal Care (CCAC) and the Association for Assessment and Accreditation of Laboratory Animal Care (AAALAC) in accordance with the CCAC Guide for Care and Use of Experimental Animals. […] Treatments were initiated on day 2 of the study and were performed once daily during 26 weeks. In both experiments, animals not receiving a test article were treated with the appropriate vehicle alone during the same period. […] QDR 4500A, Hologic, Waltham, Mass.) and a Regional High Resolution Scan software. […] Samples were processed for serum preparation and frozen at -80° C. until assay. Serum cholesterol levels and alkaline phospatase activity (ALP) were determined using the Boehringer Mannheim Diagnostic Hitachi 911 Analyzer (Boehringer Mannheim Diagnostic Laboratory Systems)."}, "[2]": {"test": "3-month treatment of ovariectomized rats: lumbar spine BMD, total body fat, serum cholesterol, ALP (Example 4, experiment 1)", "format": "in vivo, rat", "details": "OVX rats, 3 months; for LUMBAR SPINE BMD / LUMBAR SPINE Prevention of Bone Loss: E2 1 mg/kg, EM-652.HCl 2.5 mg/kg, DHEA 80 mg/kg", "description": "Ten to twelve week-old female Sprague-Dawley rats (Crl:CD(SD)Br) (Charles River Laboratory, St-Constant, Canada) weighing approximately 220-270 g at start of treatment were used. The animals were acclimatized to the environmental conditions (temperature: 22±3° C.; humidity: 50±20%; 12-h light-12-h dark cycles, lights on at 07:15 h) for at least 1 week before starting the experiments. The animals were housed individually and were allowed free access to tap water and a pelleted certified rodent feed (Lab Diet 5002, Ralston Purina, St-Louis, Mo.). Experiments were conducted in an animal facility approved by the Canadian Council on Animal Care (CCAC) and the Association for Assessment and Accreditation of Laboratory Animal Care (AAALAC) in accordance with the CCAC Guide for Care and Use of Experimental Animals.\nOn day 1 of the study, the animals of the appropriate groups were bilaterally ovariectomized (OVX) under isoflurane anesthesia. The DHEA was applied topically on the dorsal skin as a solution in 50% ethanol-50% propylene glycol while the other tested compounds were administered as suspension in 0.4% methylcellulose by oral gavage. Treatments were initiated on day 2 of the study and were performed once daily during 3 months.\nAfter 3 months (experiment 1) or 26 weeks (experiment 2) of treatment, individual rats under Isoflurane anesthesia had their whole body skeleton and lumbar spine scanned using dual energy x-ray absorptiometry (DEXA; QDR 4500A, Hologic, Waltham, Mass.) and a Regional High Resolution Scan software. The bone mineral density (BMD) of the lumbar spine (vertebrae L2 to L4) and the total body composition (fat percentage) were determined.\nAfter 3 months (experiment 1) or 26 weeks (experiment 2) of treatment, blood samples were collected at the jugular vein from overnight fasted animals (under Isoflurane anesthesia). Samples were processed for serum preparation and frozen at −80° C. until assay. Serum cholesterol levels and alkaline phospatase activity (ALP) were determined using the Boehringer Mannheim Diagnostic Hitachi 911 Analyzer (Boehringer Mannheim Diagnostic Laboratory Systems)."}, "[3]": {"system": "ZR-75-1 human breast cancer xenografts", "test": "Growth and response of human ZR-75-1 breast tumors in OVX nude mice, 7 antiestrogens for 161 days with or without estrone (Example 8)", "format": "in vivo", "description": "ZR-75-1 human breast cancer cells were obtained from the American Type Culture Collection (Rockville, Md.) and cultured in phenol red-free RPMI-1640 medium. […] (Saint-Constant, Québec, Canada). The mice (5 per cage) were housed in vinyl cages equipped with air filter lids, which were kept in laminar airflow hoods and maintained under pathogen-limiting conditions. The photoperiod was 12 hours of light and 12 hours of darkness (lights on at 07:15). Cages, bedding and food (Agway Pro-Lab R-M-H Diet #4018) were autoclaved before use. Water was autoclaved and provided ad libitum. Bilateral ovariectomy was performed under isoflurane-induced anesthesia. […] Randomization and treatments were started one week later. […] The estrone implants were then removed from the animals in the ovariectomized control group (OVX) and in groups that were to receive the antiestrogen alone. […] Tamoxifen was purchased from […]) while toremifene citrate was purchased from Orion (Espoo, Finland). […] The antiestrogen suspensions at the appropriate concentration were prepared each month, stored at 4° C. and used under constant agitation. Powder stock were hermetically stored at 4° C. […] Two perpendicular diameters were recorded and tumor area (mm2) was calculated using the formula: […] Tumor response was assessed at the end of the study or at death of each animal, if it occurred during the course of the experiment. In this case, only data of mice that survived for at least half of the study ([…]) were used in the tumor response analysis."}, "[4]": {"test": "Endometrial epithelium thickness in OVX nude mice after 161 days of antiestrogen (Example 8)", "format": "in vivo", "from_the_text": "The 17 groups included two control groups (OVX and OVX+Estrone), seven groups supplemented with an estrone implant and treated with an antiestrogen and eight other groups that received an antiestrogen alone. The estrone implants were then removed from the animals in the ovariectomized control group (OVX) and in groups that were to receive the antiestrogen alone. […] Tamoxifen was purchased from […]) while toremifene citrate was purchased from Orion (Espoo, Finland). […] The antiestrogen suspensions at the appropriate concentration were prepared each month, stored at 4° C. and used under constant agitation. Powder stock were hermetically stored at 4° C. […] After 161 days of treatment, the remaining animals were anesthetized with isoflurane and killed by exsanguination. […] The uteri were prepared to evaluate endometrial thickness by image analysis performed with Image Pro-Plus (Media Cybernetics, Maryland, USA). […] Hematoxylin- and eosin-stained sections of mice uteri were analyzed. […] Mean epithelial cell height was measured in all animals of each group."}, "human Ishikawa cells": {"system": "human Ishikawa cells", "test": "Alkaline phosphatase activity in human endometrial adenocarcinoma Ishikawa cells (Example 6)"}, "[5]": {"details": "Premarin 0.25 mg/kg, SERMs 2.5 mg/kg"}, "[6]": {"details": "estrone-supplemented, 50 μg daily, 161 days"}}, "note": "Structures can show the parent of a compound that is named as a salt. Marks after values point to notes of the source that are not given here.", "data": [{"smiles": "Oc1ccc2c(c1)CC[C@H](c1ccccc1)[C@@H]2c1ccc(OCCN2CCCC2)cc1", "note": "(racemic) [Lasofoxifene, (−)-cis-(5R,6S)-6-phenyl-5-[4-(2-pyrrolidin-1-ylethoxy)phenyl]-5,6,7,8-tetrahydronaphthalen-2-ol, D-(−)-tartrate salt]", "values": [{"measurement": "ALP", "setting": "[1]", "value": "116 ± 9", "unit": "IU"}, {"measurement": "CHOLESTEROL (serum)", "setting": "[1]", "value": "0.60 ± 0.02", "unit": "mmol/L"}, {"measurement": "TOTAL FAT", "setting": "[1]", "value": "24.1 ± 1.3", "unit": "%"}, {"measurement": "reversal of the fat increase induced by estrogen deficiency", "setting": "[1]", "value": 114, "unit": "%"}, {"measurement": "LUMBAR SPINE BMD", "setting": "[1]; [5]", "value": "0.2307 ± 0.0040", "unit": "g/cm^2"}, {"measurement": "LUMBAR SPINE Prevention of Bone Loss", "setting": "[1]; [5]", "value": 61, "unit": "%"}]}, {"smiles": "CC/C(=C(\\c1ccccc1)c1ccc(/C=C/C(=O)O)cc1)c1ccccc1", "note": "[GW 5638]", "values": [{"measurement": "ALP (serum alkaline phosphatase activity)", "setting": "[2]", "value": "72 ± 6", "unit": "IU/L"}, {"measurement": "CHOLESTEROL (serum)", "setting": "[2]", "value": "1.14 ± 0.08", "unit": "mmol/L"}, {"measurement": "TOTAL FAT", "setting": "[2]", "value": "21.9 ± 1.4", "unit": "%"}, {"measurement": "LUMBAR SPINE BMD", "setting": "[2]", "value": "0.2299 ± 0.0060", "unit": "g/cm^2"}, {"measurement": "LUMBAR SPINE Prevention of Bone Loss", "setting": "[2]", "value": 34, "unit": "%"}, {"measurement": "increase of average tumor size over baseline (agonistic effect)", "setting": "[3]; absence of estrone, 200 μg daily, 161 days", "value": "did not significantly change"}, {"measurement": "average tumor size above pretreatment values", "setting": "[3]; estrone-stimulated, 50 μg oral daily, 23 weeks", "value": 227, "unit": "%"}, {"measurement": "progressing tumors, % of tumors", "setting": "[3]; [6]", "value": 77, "unit": "%"}, {"measurement": "progressing tumors, number of total", "setting": "[3]; [6]", "value": "20 of 26"}, {"measurement": "inhibition of the stimulatory effect of estrone on epithelial height", "setting": "[4]; 50 μg daily oral, estrone stimulation", "value": 24, "unit": "%"}, {"measurement": "height of uterine epithelial cells, % of the OVX control group value", "setting": "[4]; 200 μg daily, absence of estrone", "value": 121, "unit": "%"}, {"measurement": "ENDOMETRIAL EPITHELIUM THICKNESS (μm) ± SEM", "setting": "[4]; OVX + E1, antiestrogen 50 μg daily", "value": "35.30^b,d ± 0.07 μm"}, {"measurement": "ENDOMETRIAL EPITHELIUM THICKNESS (μm) ± SEM", "setting": "[4]; OVX without E1, antiestrogen 200 μg daily", "value": "22.22^a ± 0.05 μm"}, {"measurement": "Emax", "setting": "human Ishikawa cells; Homo sapiens, Ishikawa, 120 h, read-out: Maximal stimulation of alkaline phosphatase % of 1 nM E2 stimulation", "value": "7.75 ± 5.5", "unit": "%"}, {"measurement": "Inhibition of 1 nM E2-induced stimulation of alkaline phosphatase IC50", "setting": "human Ishikawa cells; Ishikawa cells, 5-day incubation, 1 nM E2", "value": "No inhibition"}]}, {"smiles": "C[C@]12CC[C@@H]3c4ccc(O)cc4CC[C@H]3[C@@H]1CC[C@@H]2O", "note": "[E2, 17β-estradiol]", "values": [{"measurement": "ALP (serum alkaline phosphatase activity)", "setting": "[2]", "value": "59 ± 4", "unit": "IU/L"}, {"measurement": "CHOLESTEROL (serum)", "setting": "[2]", "value": "1.37 ± 0.18", "unit": "mmol/L"}, {"measurement": "TOTAL FAT", "setting": "[2]", "value": "19.5 ± 2.5", "unit": "%"}, {"measurement": "LUMBAR SPINE BMD", "setting": "[2]", "value": "0.2457 ± 0.0049", "unit": "g/cm^2"}, {"measurement": "LUMBAR SPINE Prevention of Bone Loss", "setting": "[2]", "value": 98, "unit": "%"}]}]}
